Data set [1] deals with neointimal hyperplasia. To be noted: rabbit carotid artery balloon angioplasty and vein graft intimal hyperplasia models; cited from earlier work.
Data set [2] deals with human aortic vascular smooth muscle cell (HASOM cells). The data set is described as follows: PDGF-induced migration of HASOM cells in a 24-well Boyden chamber. It counts as cell-based. As for the experimental part: (§1) The cells were then cultured in the presence of these agents for forty-eight hours prior to the migration assay. […] Each well contained an insert with a polycarbonate filter having 8 μm pores. In preparation for the migration assays, the membranes were coated with 0.1% gelatin for 8 hours, aspirated, and allowed to dry for 2 hours.
(§2) The M-199 media containing 0.5% BSA and 20 ng/ml human PDGF-B (hPDGF-BB) was placed in the bottom Boyden chamber. Cells were incubated at 5% CO2 at 37° C. for twelve hours and the cells lying on the upper surface of the membrane were scraped off. The insert membranes were removed and the cells on the lower surface of each membrane were stained with hematoxylin. Cell migration was then quantified by counting the cells in five random high-power fields on the lower surface of the membrane. All assays were run in triplicate.

The test system of data set [3] is cells of porcine origin from a primary explant of porcine carotid artery. The data set can be described thus: PDGF-induced migration of cells of porcine origin (Boyden chamber). To be noted: hPDGF-BB 20 ng/ml; second passage cells; dose dependent. It counts as cell-based. As for the experimental part: as §1, §2
Data set [4] concerns intimal thickening after balloon angioplasty. The note with it: rabbit model; administered systemically; cited from earlier work.
The subject of data set [5] is neointimal hyperplasia in mouse vein grafts. To be noted: administered locally; cited from earlier work.
Data set [6] in a line: Solubility in aqueous buffer / hydrophilicity. It counts as physicochemical.
The conditions of data set [7]: cited from earlier work.

In brackets after ≈: the same amount, converted by molar mass. Entries after “also recorded” stand apart in the source; their conditions may differ. Where a name gives a salt, the structure may show the parent alone.

For the compound `COc1cccc(CCc2ccccc2OCC(CN(C)C)OC(=O)CCC(=O)O)c1.Cl` (stereo not drawn) [Anplag], the “prevention of neointimal hyperplasia” value in data set [1] is “effective”.

`O=C(c1ccc(F)cc1)C1CCN(CCn2c(=O)[nH]c3ccccc3c2=O)CC1` [Ketanserin]: the “prevention of neointimal hyperplasia” value in data set [1] is “effective”.

As for `Cc1ccc(NC(=O)c2ccc(CN3CCN(C)CC3)cc2)cc1Nc1nccc(-c2cccnc2)n1` [Gleevec, imatinib mesylate], the “inhibition of PDGF induced migration of HASOM cells” value in data set [2] (hPDGF-BB 20 ng/ml, 48 h drug pre-treatment, 12 h migration, dose dependent) is on record as “potently inhibited; also recorded: inhibited migration”. Further, in data set [3], the “inhibition of PDGF-B induced migration of porcine cells” value is “inhibited”.

Regarding `Cc1ccc(C(=O)Nc2ccc(S(=O)(=O)O)c3cc(S(=O)(=O)O)cc(S(=O)(=O)O)c23)cc1NC(=O)c1cccc(NC(=O)Nc2cccc(C(=O)Nc3cc(C(=O)Nc4ccc(S(=O)(=O)O)c5cc(S(=O)(=O)O)cc(S(=O)(=O)O)c45)ccc3C)c2)c1` [Suramin], in data set [4], the “inhibition of intimal thickening after balloon angioplasty” value is “inhibit intimal thickening”. The “inhibition of neointimal hyperplasia in mouse vein grafts” value in data set [5] is “effective”.

Regarding `CO[C@H]1C[C@@H]2CC[C@@H](C)[C@@](O)(O2)C(=O)C(=O)N2CCCC[C@H]2C(=O)O[C@H]([C@H](C)C[C@@H]2CC[C@@H](O)[C@H](OC)C2)CC(=O)[C@H](C)/C=C(\C)[C@@H](O)[C@@H](OC)C(=O)[C@H](C)C[C@H](C)/C=C/C=C/C=C/1C` [rapamycin], the IC50 in data set [2] (Homo sapiens, in vitro VSMC migration, read-out: IC50 for blocking VSMC migration) lay in the range of 1 to 5 ng/mL (≈ 1.09 to 5.47 nM). Also, the hydrophilicity entry in data set [6] is given as “very hydrophilic”. For the same compound, the “absorption after oral administration” value in data set [7] was “absorbed rapidly and completely”.

The record behind these values is patent US20090041778A1, “Methods And Compositions For The Treatment Of Graft Failure” (priority 2004, published 2009).
